Assay results from PMC12058161, “The plant matrix of Artemisia annua L. for the treatment of malaria: Pharmacodynamic and pharmacokinetic studies” (PLOS One, 2025).
Values joined by “and” are separate entries in the source; they are usually repeats but may differ in a detail not shown here. Identical values can stand only once. Each block holds one compound with its values, some of them ahead of it.

What was measured:
[1] = test system: CYP3A4; details: read-out: IC50 of CYP3A4 inhibition; cited from earlier work
[2] = male, Sprague Dawley, rat, in vivo
Experimental: (§1) Blood samples were centrifuged at 3500 rpm for 5 min at 4°C. All plasma samples were then stored at -80°C until analysis.
(§2) All samples were stored in a refrigerator at -80°C and thawed at room temperature before processing. A 50 μL aliquot of plasma was added with 5 μL of the standard solution (or acetonitrile) and 100 μL of internal standard solution in turn, vortexed and mixed, then sonicated for 3 min, centrifuged at 14000 rpm for 10 min at low temperature. The supernatant was transferred to an autosampler vial and analyzed by UHPLC-ESI-MS/MS.
(§3) The mobile phase consisted of 0.1% formic acid solution (A) and acetonitrile (B).
(§4) The ESI ionization source was used and detected in MRM mode.
(§5) All data were presented as mean ± SD. Pharmacokinetic parameters including half-life (t1/2), maximum plasma time (Tmax) and concentration (Cmax), area under concentration-time curve (AUC0-t and AUC0-∞), clearance (CL), steady-state volume of distribution (Vz), and mean residence time (MRT) were analyzed by non-compartmental method using DAS Version 2.0 (Chinese Pharmacological Society, Beijing, China). […] The data were analyzed by Student’s t-test for two groups and one-way analysis of variance for multiple groups; p < 0.05 was considered statistically significant.

[3] = test system: Caco-2 cells; test: Cytotoxicity in Caco-2 cells, CCK-8 assay; type: cell-based, human; details: for Cell survival rate%: mean; for cck-8 mean (survival fraction): mean of 6
Experimental: Caco-2 cells were cultured in 96-well plates for 48 h at a seeding density of 5.0 × 10^3 cells/well before the addition of drugs. […] The final concentration of DMSO was 0.05% (v/v). Experiments were initiated by replacing the culture medium in each well with 100 μL of sample solutions at 37°C in the CO2 incubator. After 48 h of incubation, the medium was removed and 10 μL of CCK-8 reagent in the serum-free medium was added to each well. The plates were then incubated at 37°C for another 2 h. At the end of the incubation period, the plates were quantified by reading the absorbance at 450 nm on a micro-plate multi-detection instrument, SpectraMax iD3 with SoftMax® Pro (Molecular Devices Corporation Sunnyvale, CA, USA). The percentage of cell viability was calculated based on the absorbance measured relative to the absorbance of cells exposed to the negative control.

[4] = target: T1, P-glycoprotein (P-gp) (Homo sapiens, UniProt P08183); test: Rhodamine 123 (P-gp substrate) transport across drug-treated Caco-2 cell monolayers; type: cell-based; details: co-incubated with R123, 10 μM, Caco-2 monolayer, Fig 6
T1 construct: The transport of R123 in normal Caco-2 cell monolayers or drug-treated Caco-2 cell monolayers was further studied; host or cells: Caco-2
T1 sequence (P08183 whole entry): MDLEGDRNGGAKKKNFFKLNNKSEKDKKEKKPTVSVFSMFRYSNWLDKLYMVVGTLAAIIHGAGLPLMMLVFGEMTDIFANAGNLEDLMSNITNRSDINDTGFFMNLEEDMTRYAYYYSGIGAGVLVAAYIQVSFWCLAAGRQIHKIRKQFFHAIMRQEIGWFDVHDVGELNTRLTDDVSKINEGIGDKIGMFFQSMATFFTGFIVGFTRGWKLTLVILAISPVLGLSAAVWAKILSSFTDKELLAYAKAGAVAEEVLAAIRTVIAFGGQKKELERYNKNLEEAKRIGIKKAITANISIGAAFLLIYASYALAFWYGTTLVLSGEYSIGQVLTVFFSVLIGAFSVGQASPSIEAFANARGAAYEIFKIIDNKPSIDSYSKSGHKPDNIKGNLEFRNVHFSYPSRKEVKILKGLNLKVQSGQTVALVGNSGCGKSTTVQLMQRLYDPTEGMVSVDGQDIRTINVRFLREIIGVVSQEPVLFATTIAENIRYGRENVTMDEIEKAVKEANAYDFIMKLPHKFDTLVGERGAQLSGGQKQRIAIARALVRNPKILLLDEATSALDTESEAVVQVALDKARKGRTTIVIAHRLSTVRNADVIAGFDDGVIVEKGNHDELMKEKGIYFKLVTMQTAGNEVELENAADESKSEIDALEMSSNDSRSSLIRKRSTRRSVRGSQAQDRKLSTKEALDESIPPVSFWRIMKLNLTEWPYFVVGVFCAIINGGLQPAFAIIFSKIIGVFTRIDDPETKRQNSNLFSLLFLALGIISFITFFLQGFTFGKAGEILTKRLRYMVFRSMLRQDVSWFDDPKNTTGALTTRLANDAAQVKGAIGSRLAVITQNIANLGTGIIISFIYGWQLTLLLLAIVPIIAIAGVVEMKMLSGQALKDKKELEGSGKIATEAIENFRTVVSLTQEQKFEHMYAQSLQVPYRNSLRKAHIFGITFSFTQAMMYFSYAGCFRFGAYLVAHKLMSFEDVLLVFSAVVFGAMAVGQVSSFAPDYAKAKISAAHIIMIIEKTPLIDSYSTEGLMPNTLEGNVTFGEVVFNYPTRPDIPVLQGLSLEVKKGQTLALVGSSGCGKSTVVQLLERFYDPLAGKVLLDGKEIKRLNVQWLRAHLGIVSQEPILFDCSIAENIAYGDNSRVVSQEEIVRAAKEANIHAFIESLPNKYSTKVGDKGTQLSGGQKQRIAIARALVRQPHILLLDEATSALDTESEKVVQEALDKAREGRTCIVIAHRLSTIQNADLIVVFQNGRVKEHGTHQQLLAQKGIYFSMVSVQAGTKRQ
From the text: The human epithelial cell line Caco-2 serves as a widely recognized model for the intestinal epithelial barrier, frequently utilized in the assessment of drug absorption and transport mechanisms. In this study, we evaluated drug absorption and distribution in vitro with the help of the Caco-2 cell model. Caco-2 cells were purchased from the Chinese Academy of Medical Sciences (Beijing, China, Resource No. 3111C0001CCC000100). The cells were resuscitated and inserted into culture flasks. Caco-2 cells were passaged with DMEM high glucose medium containing 10% (V/V) FBS, 1% (V/V) non-essential amino acid solution and 100 U/mL penicillin-streptomycin double antibiotic solution, and cultured at 37°C in a 5% CO2 incubator. […] The integrity of the cell monolayer was checked by measuring the transmembrane electrical resistance (TEER) of the monolayer cells with a Millicell-ERS electrode (Millipore Corp., Billerica, MA, USA). Caco-2 cells were used for transport experiments 17–21 days after inoculation. Besides, only monolayers with TEER values above 400 Ω/cm^2 were used in the study.
The transport of R123 in normal Caco-2 cell monolayers or drug-treated Caco-2 cell monolayers was further studied. […] The transport buffer containing 5 μM of R123 was added on either the AP or the BL side of the inserts, as described above. […] The concentrations of R123 were immediately analyzed by SpectraMax iD3. The excitation wavelength was set at 485 nm, and the emission wavelength at 535 nm. Papp values across the cell monolayers were calculated according to the equation: Papp = dQ/dt × 1/(A × C0), where dQ/dt represents the rate of drug transport. […] The efflux ratio was calculated using the Papp (BL-AP) to Papp (AP-BL) ratio.

[5] = in vivo; details: male, Sprague Dawley, rat, po, 352 mg/kg
Experimental: as §1, §2, §3, §4, §5

[6] = Stability of the five compounds in SD rat plasma (QC samples, UHPLC-ESI-MS/MS); type: in vitro ADME; details: for stability, Accuracy (measured versus nominal concentration) / stability, mean ± SD (measured concentration): SD rat plasma, n=5
Experimental: The method was validated according to the US Food and Drug Administration (FDA) Bioanalytical Method Validation Guidance as follows: [1] specificity was assessed by analyzing blank plasma, blank plasma spiked with standard solutions and rat plasma samples after oral administration. Each calibration curve was plotted using the concentration of the standard solution as the horizontal coordinate and the ratio of analyte to internal standard peak area as the vertical coordinate. The lower limit of quantification (LLOQ) refers to the lowest concentration, which is typically 10 times the signal-to-noise ratio. It has an acceptable accuracy of ± 20% and a precision of less than 20% [3]. Quality Control (QC) samples (low, medium and high concentrations) were prepared for each analyte. Five samples were analyzed at each concentration level and three consecutive batches were determined to calculate the accuracy and precision of the method. Extraction recovery was assessed by the ratio of the average peak area of routinely prepared QC samples (low, medium, and high concentrations) to the post-extraction plasma sample. Likewise, matrix effect was assessed by the ratio of peak areas between post-extraction samples spiked with analytes and mobile phases spiked with the same concentration of analytes.

[7] = Caco-2, concentration 10 μmol/L
[8] = Caco-2, concentration 20 μmol/L
[9] = Caco-2, concentration 40 μmol/L
[10] = Caco-2, concentration 80 μmol/L
[11] = nominal 160 ng/mL, 3 freeze-thaw cycles
[12] = nominal 160 ng/mL, 7 days at -80°C
[13] = nominal 160 ng/mL, Room temperature 24h
[14] = nominal 1000 ng/mL, 3 freeze-thaw cycles
[15] = nominal 1000 ng/mL, 7 days at -80°C
[16] = nominal 1000 ng/mL, Room temperature 24h
[17] = nominal 5000 ng/mL, 3 freeze-thaw cycles
[18] = nominal 5000 ng/mL, 7 days at -80°C
[19] = nominal 5000 ng/mL, Room temperature 24h

Compound: C=C1C(=O)O[C@@]23[C@H]1CC[C@@H](C)[C@@H]2CC[C@@]1(C)O[C@@H]31 [arteannuin B]
- IC50 [1]: 1200 nM

- CLz [2]: 24 mL/day/kg
- CL ([2]; po, 352 mg/kg): 0.001 ± 0.001 L/h
- Vz ([2]; po, 352 mg/kg): 0.005 ± 0.001 L
- reduction of R123 transport from the BL side to the AP side [4]: 45.21%
- AUC(0-inf) [5]: 29700 ± 6700 ng·h/mL
- AUC(0-t) [5]: 28700 ± 6660 ng·h/mL
- Cmax ([5]; Cmax): 10400 ± 2440 ng/mL
- MRT inf ([5]; MRT(0-∞)): 6.08 ± 1.27 h
- half-life ([5]; t1/2): 4.64 ± 1.18 h
- half-life ([5]; t1/2z): 3.97 h
- Stability, measured concentration, mean ± SD ([6]; QC sample 160 ng/mL, 3 freeze-thaw cycles): 161 ± 10.8 ng/mL and 160.872 ng/mL
- Stability, measured concentration, mean ± SD ([6]; QC sample 160 ng/mL, 7 days at -80°C): 149 ± 5.80 ng/mL and 149.16 ng/mL
- Stability, measured concentration, mean ± SD ([6]; QC sample 160 ng/mL, Room temperature 24h): 151 ± 5.81 ng/mL and 151.046 ng/mL
- Stability, measured concentration, mean ± SD ([6]; QC sample 1000 ng/mL, 3 freeze-thaw cycles): 914 ± 35.7 ng/mL and 914.334 ng/mL
- Stability, measured concentration, mean ± SD ([6]; QC sample 1000 ng/mL, 7 days at -80°C): 1064 ± 21.4 ng/mL and 1063.64 ng/mL
- Stability, measured concentration, mean ± SD ([6]; QC sample 1000 ng/mL, Room temperature 24h): 959.663 ng/mL and 960 ± 45.4 ng/mL
- Stability, measured concentration, mean ± SD ([6]; QC sample 5000 ng/mL, 3 freeze-thaw cycles): 4813 ± 108 ng/mL and 4813.44 ng/mL
- Stability, measured concentration, mean ± SD ([6]; QC sample 5000 ng/mL, 7 days at -80°C): 4814 ± 118 ng/mL and 4813.94 ng/mL
- Stability, measured concentration, mean ± SD ([6]; QC sample 5000 ng/mL, Room temperature 24h): 5079.03 ng/mL and 5079 ± 336 ng/mL
- stability, Accuracy (measured versus nominal concentration) [6, 11]: 100.54%
- stability, mean ± SD (measured concentration) [6, 11]: 161 ± 10.8 ng/mL
- stability, Accuracy (measured versus nominal concentration) [6, 12]: 93.23%
- stability, mean ± SD (measured concentration) [6, 12]: 149 ± 5.80 ng/mL
- stability, Accuracy (measured versus nominal concentration) [6, 13]: 94.40%
- stability, mean ± SD (measured concentration) [6, 13]: 151 ± 5.81 ng/mL
- stability, Accuracy (measured versus nominal concentration) [6, 14]: 91.43%
- stability, mean ± SD (measured concentration) [6, 14]: 914 ± 35.7 ng/mL
- stability, Accuracy (measured versus nominal concentration) [6, 15]: 106.36%
- stability, mean ± SD (measured concentration) [6, 15]: 1064 ± 21.4 ng/mL
- stability, Accuracy (measured versus nominal concentration) [6, 16]: 95.97%
- stability, mean ± SD (measured concentration) [6, 16]: 960 ± 45.4 ng/mL
- stability, Accuracy (measured versus nominal concentration) [6, 17]: 96.27%
- stability, mean ± SD (measured concentration) [6, 17]: 4813 ± 108 ng/mL
- stability, Accuracy (measured versus nominal concentration) [6, 18]: 96.28%
- stability, mean ± SD (measured concentration) [6, 18]: 4814 ± 118 ng/mL
- stability, Accuracy (measured versus nominal concentration) [6, 19]: 101.58%
- stability, mean ± SD (measured concentration) [6, 19]: 5079 ± 336 ng/mL
Compound: CC1=C[C@H]2[C@@H](CC1)[C@H](C)CC[C@H]2[C@@H](C)C(=O)O [DHAA, Dihydroartemisinic acid]
- Cell survival rate%, single replicate ([3]; Caco-2, 5μmol/L): 84.02% and 84.22% and 87.64% and 85.87% and 89.84% and 87.8%
- Cell survival rate%, single replicate ([3]; Caco-2, 10μmol/L): 84.68% and 88.84% and 86.58% and 89.08% and 86.49% and 80.21%
- Cell survival rate%, single replicate ([3]; Caco-2, 20μmol/L): 84.63% and 81.53% and 85.05% and 89.44% and 83.52% and 78.29%
- Cell survival rate%, single replicate ([3]; Caco-2, 40μmol/L): 84.99% and 84.53% and 82.56% and 83.98% and 80.6% and 81.3%
- Cell survival rate%, single replicate ([3]; Caco-2, 80μmol/L): 80.04% and 80.37% and 80.83% and 80.86% and 80.51% and 80.11%
- cck-8 cell survival as fraction, single replicate ([3]; Caco-2, concentration 5 μmol/L): 0.8402 and 0.8422 and 0.8764 and 0.8587 and 0.8984 and 0.878
- Cell survival rate% ([3]; Caco-2, concentration 5 μmol/L): 86.56%
- cck-8 mean (survival fraction) ([3]; Caco-2, concentration 5 μmol/L): 0.87
- cck-8 cell survival as fraction, single replicate [3, 7]: 0.8468 and 0.8884 and 0.8658 and 0.8908 and 0.8649 and 0.8021
- Cell survival rate% [3, 7]: 85.98%
- cck-8 mean (survival fraction) [3, 7]: 0.86
- cck-8 cell survival as fraction, single replicate [3, 8]: 0.8463 and 0.8153 and 0.8505 and 0.8944 and 0.8352 and 0.7829
- Cell survival rate% [3, 8]: 83.74%
- cck-8 mean (survival fraction) [3, 8]: 0.84
- cck-8 cell survival as fraction, single replicate [3, 9]: 0.8499 and 0.8453 and 0.8256 and 0.8398 and 0.806 and 0.813
- Cell survival rate% [3, 9]: 82.99%
- cck-8 mean (survival fraction) [3, 9]: 0.83
- cck-8 cell survival as fraction, single replicate [3, 10]: 0.8004 and 0.8037 and 0.8083 and 0.8086 and 0.8051 and 0.8011
- Cell survival rate% [3, 10]: 80.45%
- cck-8 mean (survival fraction) [3, 10]: 0.80
